Assay results published in patent publication US20050049220A1, “Dosing regimen for Flaviviridae therapy” (priority 2003, published 2005).
Read-outs that look alike come from different tables or passages of the source.

Assays:
Huh-7 cells = assay: Cellular rRNA levels / cytotoxicity in HCV replicon cells; conditions: 100 μM; 4 days; HCV replicon transfected Huh-7 cells
Description: In a typical setting, a compound might reduce both the host RNA polymerase activity and the replicon-encoded polymerase activity. Therefore, quantification of rRNA (or any other host RNA polymerase I product) or beta-actin mRNA (or any other host RNA polymerase II) and comparison with RNA levels of the no-drug control is a relative measurement of the effect of the test compound on host RNA polymerases.
With the availability of both the HCV ΔCt data and the rRNA ΔCt, a specificity parameter can be introduced. This parameter is obtained by subtracting both ΔCt values from each other.
IFN-α-2a and ribavirin were tested over a range of concentrations for their ability to reduce the HCV RNA levels in exponentially growing replicon cells after 4 days of exposure as described (Stuyver, L. et al. “A ribonucleoside analogue that blocks the replication of bovine viral diarrhea and hepatitis C viruses in culture” Antimicrob. Agents Chemother. 2003, 47, 244-254).
Gemcitabine was dissolved in DMSO and added to the culture media of a cellular model system of Huh7 cells harboring self-replicating HCV RNA, at final concentrations ranging from […]. In such experiments, one way to express the antiviral effectiveness of a compound is to subtract the threshold reverse-transcriptase polymerase chain reactions (RT-PCR) cycle of the test compound with the average threshold RT-PCR cycle of the negative control. This value is called DeltaCt (ΔCt or dCt). With the availability of both the HCV ΔCt data and the rRNA ΔCt, a specificity parameter can be introduced. This parameter is obtained by subtracting both ΔCt values from each other.

HCV replicon = HCV replicon assay: HCV RNA by Q-RT-PCR, 4 days exposure; assay type: cell-based, hepatitis C virus (HCV); conditions: for EC90: read-out: Corrected HCV RNA EC90; for log reduction at 10 µM: read-out: Corrected HCV RNA log10 reduction at 10 μM
Experimental: Antiviral screening assays can be done in the same media without G418 as follows: in order to keep cells in logarithmic growth phase, seed cells in a 96-well plate at low density, for example 1000 cells per well. Add the test compound immediate after seeding the cells and incubate for a period of 3 to 7 days at 37° C. in an incubator. Media is then removed, and the cells are prepared for total nucleic acid extraction (including replicon RNA and host RNA). Replicon RNA can then be amplified in a Q-RT-PCR protocol, and quantified accordingly. […] This value is called DeltaCt (ΔCt or DCt).
This value is called DeltaCt (ΔCt or dCt).

[1] = 100 μM, 4 days, HCV replicon transfected Huh-7 cells
[2] = Hepatitis C virus, 96 h, read-out: Corrected HCV RNA log10 reduction at 100 μM
[3] = Hepatitis C virus, 96 h, 100 μM, 4 days, HCV replicon transfected Huh-7 cells, read-out: log10 RNA reduction at 100 μM, HCV
[4] = Hepatitis C virus, 96 h incubation
[5] = Hepatitis C virus, 96 h, 10 μM, corrected for rRNA
[6] = Hepatitis C virus, 96 h, 100 μM, corrected for rRNA, read-out: Corrected HCV RNA log10 reduction at 100 μM

## O=c1cnn([C@@H]2O[C@H](CO)[C@@H](O)[C@H]2O)c(=S)[nH]1 [2-thio-6-azauridine]
Huh-7 cells
  log10 RNA reduction at 100 μM, rRNA: −0.02 ± 0.12 log10
HCV replicon; 10 μM, corrected for rRNA
  Corrected HCV RNA log10 reduction at 10 μM: 0.12 ± 0.10 log10
HCV replicon; [1]
  log10 RNA reduction at 100 μM, HCV: 0.16 ± 0.04 log10
HCV replicon; 100 μM, corrected for rRNA
  Corrected HCV RNA log10 reduction at 100 μM: 0.19 ± 0.09 log10
HCV replicon; 96 h incubation
  EC90: > 100 µM

## O=c1[nH]c(=O)n([C@H]2C[C@H](O)[C@@H](CO)O2)cc1F [2′-deoxy-5-fluorouridine]
Huh-7 cells
  log10 RNA reduction at 100 μM, rRNA: 0.73 ± 0.35 log10
HCV replicon; Hepatitis C virus, 96 h
  log reduction at 10 µM: 0.23 ± 0.05
HCV replicon; [2]
  log reduction at 100 µM: 0.04 ± 0.25
HCV replicon; [3]
  log reduction at 100 µM: 0.76 ± 0.06
HCV replicon; [4]
  EC90: > 100 µM

## O=c1cnn([C@@H]2O[C@H](CO)[C@@H](O)[C@H]2O)c(=O)[nH]1 [6-azauridine]
Huh-7 cells
  log10 RNA reduction at 100 μM, rRNA: 0.61 ± 0.18 log10
HCV replicon; [5]
  log reduction at 10 µM: 0.12 ± 0.05
HCV replicon; [3]
  log reduction at 100 µM: 0.25 ± 0.09
HCV replicon; [6]
  log reduction at 100 µM: -0.36 ± 0.16
HCV replicon; [4]
  EC90: > 100 µM

## Cc1c(-c2ccc(-c3ccccc3F)cc2)nc2ccc(F)cc2c1C(=O)O [Brequinar (NSC-368390), Brequinar]
Huh-7 cells
  log10 RNA reduction at 100 μM, rRNA: 0.29 ± 0.01 log10
HCV replicon; [5]
  log reduction at 10 µM: -0.17 ± 0.09
HCV replicon; [3]
  log reduction at 100 µM: -0.05 ± 0.05
HCV replicon; [6]
  log reduction at 100 µM: -0.34 ± 0.04
HCV replicon; [4]
  EC90: > 100 µM

## COc1c(C)c2c(c(O)c1CCOP(=O)(O)CP(=O)(O)OC[C@H]1O[C@@H](n3cnc4c(N)ncnc43)[C@H](O)[C@@H]1O)C(=O)OC2 [C2-MAD]
Huh-7 cells
  log10 RNA reduction at 100 μM, rRNA: 1.00 ± 0.15 log10
HCV replicon; 10 μM, corrected for rRNA
  Corrected HCV RNA log10 reduction at 10 μM: 0.36 ± 0.21 log10
HCV replicon; [1]
  log10 RNA reduction at 100 μM, HCV: 1.09 ± 0.21 log10
HCV replicon; 100 μM, corrected for rRNA
  Corrected HCV RNA log10 reduction at 100 μM: 0.08 ± 0.24 log10
HCV replicon; 96 h incubation
  EC90: > 100 µM

## Nc1ccn([C@@H]2C=C(CO)[C@@H](O)[C@H]2O)c(=O)n1 [CPE-C, cyclopentenylcytosine]
Huh-7 cells
  log10 RNA reduction at 100 μM, rRNA: 1.21 ± 0.16 log10
HCV replicon; 96 h incubation
  EC90: 2.5 µM
HCV replicon; [5]
  log reduction at 10 µM: 1.43 ± 0.01
HCV replicon; [3]
  log reduction at 100 µM: 2.47 ± 0.33
HCV replicon; [6]
  log reduction at 100 µM: 1.26 ± 0.51

## CC(=O)N(O)CCCCCNC(=O)CCC(=O)N(O)CCCCCNC(=O)CCC(=O)N(O)CCCCCN [Deferoxamine]
Huh-7 cells
  log10 RNA reduction at 100 μM, rRNA: 0.92 ± 0.08 log10
HCV replicon; 10 μM, corrected for rRNA
  Corrected HCV RNA log10 reduction at 10 μM: 0.17 ± 0.11 log10
HCV replicon; [6]
  log reduction at 100 µM: 0.08 ± 0.03
HCV replicon; [4]
  EC90: > 100 µM

## O=C1C(O)=C(CC=C(Cl)Cl)C(=O)c2ccccc21 [Dichloroallyl lawsone (NSC-126771), Dichloroallyl lawsone]
Huh-7 cells
  log10 RNA reduction at 100 μM, rRNA: 2.13 ± 0.15 log10
HCV replicon; 10 μM, corrected for rRNA
  Corrected HCV RNA log10 reduction at 10 μM: −0.52 ± 0.01 log10
HCV replicon; [1]
  log10 RNA reduction at 100 μM, HCV: 1.27 ± 0.02 log10
HCV replicon; 100 μM, corrected for rRNA
  Corrected HCV RNA log10 reduction at 100 μM: −0.86 ± 0.17 log10
HCV replicon; 96 h incubation
  EC90: > 100 µM

## Nc1n[nH]c(N)n1 [Guanazole]
Huh-7 cells
  log10 RNA reduction at 100 μM, rRNA: 0.07 ± 0.03 log10
HCV replicon; Hepatitis C virus, 96 h
  EC90: > 100 µM
  log reduction at 10 µM: 0.05 ± 0.08
HCV replicon; [2]
  log reduction at 100 µM: 0.32 ± 0.08
HCV replicon; Hepatitis C virus, Huh-7, 96 h, read-out: log10 RNA reduction at 100 μM, HCV
  log reduction at 100 µM: 0.25 ± 0.11
